From ChEMBL document CHEMBL1201862, “PubChem BioAssay data set” (2004)
Calls of active or inactive are those of the source.

Legend:
[1] = biological target: T1, Endoribonuclease toxin MazF (Escherichia coli K-12, UniProt P0AE70); experiment: substrate-only fluorescence increase artefacts – biochemical, single-stranded RNase substrate, counter-screen for MazEF activator project, dose response (AID 588502); format: functional
T1 sequence (P0AE70 whole entry): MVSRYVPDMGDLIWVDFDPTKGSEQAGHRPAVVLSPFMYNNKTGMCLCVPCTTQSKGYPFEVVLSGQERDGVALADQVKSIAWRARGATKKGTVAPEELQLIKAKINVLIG

[2] = biological target: T1, Endoribonuclease toxin MazF; experiment: activation of MazEF endoribonuclease cleavage – biochemical, fluorescence, single-stranded RNA substrate, uHTS hits, dose response (AID 588481); format: functional
[3] = biological target: T2, Fatty acid synthase (Homo sapiens, UniProt P49327); experiment: inhibition of human FAS-TE enzyme activity – biochemical, endpoint fluorescence intensity, uHTS hits, dose response (AID 624327); format: functional;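 also: fluorescence from hydrolysis of an O-methyl fluorescein acyl ester substrate by the enzyme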
[4] = biological target: T3, Sentrin-specific protease 8 (Homo sapiens, UniProt Q96LD8); format: functional;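 also: luminescence read-out of SENP8 inhibition, dose-response confirmation following an ultra-high-throughput screen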
T3 sequence (Q96LD8 whole entry): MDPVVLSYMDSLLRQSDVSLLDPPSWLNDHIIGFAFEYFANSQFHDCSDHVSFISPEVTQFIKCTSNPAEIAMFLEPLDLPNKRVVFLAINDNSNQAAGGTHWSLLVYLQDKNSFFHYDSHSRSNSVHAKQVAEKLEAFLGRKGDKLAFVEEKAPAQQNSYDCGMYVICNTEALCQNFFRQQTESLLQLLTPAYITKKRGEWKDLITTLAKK

[5] = biological target: T2, Fatty acid synthase; experiment: inhibition of human FAS-TE enzyme activity – biochemical, kinetic fluorescence intensity, dose response (AID 624326); format: functional;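 also: rate of fluorescence rise from hydrolysis of a fluorogenic O-methyl fluorescein ester substrate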
[6] = biological target: T4, Sentrin-specific protease 7 (Homo sapiens, UniProt Q9BQF6); format: functional;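 also: Luminescence-based dose-response confirmation of ultra-high-throughput screening hits, measuring inhibition of SENP7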
T4 sequence (Q9BQF6 whole entry): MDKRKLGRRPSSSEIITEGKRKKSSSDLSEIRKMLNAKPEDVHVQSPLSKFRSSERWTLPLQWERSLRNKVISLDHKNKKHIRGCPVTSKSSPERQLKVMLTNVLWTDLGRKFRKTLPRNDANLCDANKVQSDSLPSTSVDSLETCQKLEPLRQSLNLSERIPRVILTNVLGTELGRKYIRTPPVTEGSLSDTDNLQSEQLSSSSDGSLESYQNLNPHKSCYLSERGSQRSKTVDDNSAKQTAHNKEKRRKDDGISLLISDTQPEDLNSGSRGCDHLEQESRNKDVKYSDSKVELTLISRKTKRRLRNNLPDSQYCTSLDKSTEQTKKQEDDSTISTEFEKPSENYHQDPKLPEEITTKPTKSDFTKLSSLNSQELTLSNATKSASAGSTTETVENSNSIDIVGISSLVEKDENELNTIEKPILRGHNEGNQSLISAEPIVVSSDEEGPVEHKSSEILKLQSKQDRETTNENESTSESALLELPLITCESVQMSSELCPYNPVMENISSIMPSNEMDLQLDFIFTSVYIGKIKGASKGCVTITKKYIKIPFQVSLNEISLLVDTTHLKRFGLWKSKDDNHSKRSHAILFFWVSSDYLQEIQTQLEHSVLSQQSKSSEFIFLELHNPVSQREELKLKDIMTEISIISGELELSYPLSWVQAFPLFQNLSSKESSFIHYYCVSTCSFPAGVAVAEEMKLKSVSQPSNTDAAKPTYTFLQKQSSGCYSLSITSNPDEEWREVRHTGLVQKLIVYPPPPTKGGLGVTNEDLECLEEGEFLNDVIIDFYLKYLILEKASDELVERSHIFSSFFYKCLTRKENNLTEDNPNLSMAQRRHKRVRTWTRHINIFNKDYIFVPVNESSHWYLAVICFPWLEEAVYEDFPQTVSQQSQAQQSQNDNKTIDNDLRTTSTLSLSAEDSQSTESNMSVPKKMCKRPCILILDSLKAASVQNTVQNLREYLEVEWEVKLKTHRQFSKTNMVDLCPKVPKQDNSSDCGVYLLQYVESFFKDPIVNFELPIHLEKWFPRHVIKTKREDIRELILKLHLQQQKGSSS

[7] = biological target: T5, Sentrin-specific protease 6 (Homo sapiens, UniProt Q9GZR1); format: functional;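 also: Luminescence-based dose-response confirmatory assay of SENP6 inhibition, following up an ultra-high-throughput screen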
T5 sequence (Q9GZR1 whole entry): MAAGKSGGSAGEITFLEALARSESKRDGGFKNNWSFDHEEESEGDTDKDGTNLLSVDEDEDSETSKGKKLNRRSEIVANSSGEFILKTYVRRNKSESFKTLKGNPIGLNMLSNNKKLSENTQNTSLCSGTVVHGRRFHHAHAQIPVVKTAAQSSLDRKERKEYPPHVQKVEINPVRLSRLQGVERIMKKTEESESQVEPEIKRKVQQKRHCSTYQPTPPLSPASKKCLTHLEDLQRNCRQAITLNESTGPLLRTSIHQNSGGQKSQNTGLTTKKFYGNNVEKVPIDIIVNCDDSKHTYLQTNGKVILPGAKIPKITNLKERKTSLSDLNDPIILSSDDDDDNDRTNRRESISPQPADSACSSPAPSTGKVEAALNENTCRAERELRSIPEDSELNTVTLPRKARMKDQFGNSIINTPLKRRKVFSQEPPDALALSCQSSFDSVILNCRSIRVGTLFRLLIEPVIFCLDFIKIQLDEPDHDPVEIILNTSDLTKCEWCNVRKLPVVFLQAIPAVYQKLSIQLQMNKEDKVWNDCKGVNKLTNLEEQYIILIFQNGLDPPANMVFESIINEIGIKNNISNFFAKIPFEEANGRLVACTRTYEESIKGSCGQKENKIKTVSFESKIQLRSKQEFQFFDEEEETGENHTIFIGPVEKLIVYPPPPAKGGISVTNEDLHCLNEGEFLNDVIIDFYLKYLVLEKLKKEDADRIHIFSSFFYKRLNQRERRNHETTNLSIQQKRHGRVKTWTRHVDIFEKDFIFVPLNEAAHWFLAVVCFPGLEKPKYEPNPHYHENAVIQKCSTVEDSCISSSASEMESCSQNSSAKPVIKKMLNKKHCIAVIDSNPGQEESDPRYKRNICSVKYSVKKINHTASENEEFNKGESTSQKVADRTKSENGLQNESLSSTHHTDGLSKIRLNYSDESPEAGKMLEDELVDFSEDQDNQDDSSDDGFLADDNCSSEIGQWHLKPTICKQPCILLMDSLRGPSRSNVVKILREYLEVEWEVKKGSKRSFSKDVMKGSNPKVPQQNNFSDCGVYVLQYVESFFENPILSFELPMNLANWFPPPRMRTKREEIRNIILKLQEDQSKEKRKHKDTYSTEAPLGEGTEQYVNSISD

[8] = biological target: T6, Caspase-3 (Homo sapiens, UniProt P42574); format: functional;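 also: Dose-response selectivity test against caspase-3 for candidate inhibitors of sentrin-specific proteases (SENPs)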
T6 sequence (P42574 whole entry): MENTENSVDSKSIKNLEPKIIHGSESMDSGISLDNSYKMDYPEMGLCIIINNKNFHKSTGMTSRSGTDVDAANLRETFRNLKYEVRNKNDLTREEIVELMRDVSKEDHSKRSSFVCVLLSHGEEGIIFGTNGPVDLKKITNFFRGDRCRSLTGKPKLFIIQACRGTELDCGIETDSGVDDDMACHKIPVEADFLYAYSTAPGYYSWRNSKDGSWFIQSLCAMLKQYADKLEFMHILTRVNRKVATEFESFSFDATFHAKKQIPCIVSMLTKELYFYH

[9] = Luminescence Cell-Based Dose Retest to Confirm Inhibitors of Cancer Stem Cells. [Related pubchem assays (depositor defined):AID2717, AID2721]; format: functional; conditions: Homo sapiens
[10] = biological target: T7, Heat shock factor protein 1 (Mus musculus, UniProt P38532); experiment: enhancement of HSF1-driven luciferase signal – cell-based, NIH3T3, luminescence, dose retest, confirmation (AID 435004); format: functional;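 also: stress induced by proteasome inhibitor MG132 added 30 min after compound; luciferase reporter driven by HSF1 response element in NIH3T3 cells; actives raise luminescence as potentiators of the MG132 stress response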
T7 sequence (P38532 whole entry): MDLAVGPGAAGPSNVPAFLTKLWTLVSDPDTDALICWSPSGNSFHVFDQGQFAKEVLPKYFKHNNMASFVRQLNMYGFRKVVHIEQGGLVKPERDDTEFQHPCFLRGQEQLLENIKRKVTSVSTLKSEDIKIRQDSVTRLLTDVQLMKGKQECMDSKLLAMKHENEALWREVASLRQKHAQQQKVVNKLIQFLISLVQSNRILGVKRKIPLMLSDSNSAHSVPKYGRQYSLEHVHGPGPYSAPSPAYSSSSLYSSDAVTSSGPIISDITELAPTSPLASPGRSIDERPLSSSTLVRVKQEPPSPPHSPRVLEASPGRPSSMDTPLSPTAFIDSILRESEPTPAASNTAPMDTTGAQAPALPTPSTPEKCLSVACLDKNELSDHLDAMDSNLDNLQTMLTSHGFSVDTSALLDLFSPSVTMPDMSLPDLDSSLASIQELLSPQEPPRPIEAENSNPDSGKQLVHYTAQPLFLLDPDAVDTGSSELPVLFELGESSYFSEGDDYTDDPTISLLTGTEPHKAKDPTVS

[11] = biological target: T8, RNA-binding protein pos-1 (Caenorhabditis elegans, UniProt G5EF15); experiment: disruptors of C. elegans POS-1 RNA interaction – biochemical, fluorescence polarization, dose response (AID 1964);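 also: purified POS-1 fused to maltose binding protein made in E. coli; potency of compounds blocking POS-1 binding to fluorescent RNA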
T8 sequence (G5EF15 whole entry): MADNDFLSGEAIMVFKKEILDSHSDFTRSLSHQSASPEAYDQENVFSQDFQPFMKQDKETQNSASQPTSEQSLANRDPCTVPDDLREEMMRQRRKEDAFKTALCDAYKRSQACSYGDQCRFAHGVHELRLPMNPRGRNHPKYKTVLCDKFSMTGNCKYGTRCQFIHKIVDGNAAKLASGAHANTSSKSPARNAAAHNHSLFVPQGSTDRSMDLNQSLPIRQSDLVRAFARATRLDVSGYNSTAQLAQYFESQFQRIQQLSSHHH

[12] = biological target: T9, Zinc finger protein mex-5 (Caenorhabditis elegans, UniProt Q9XUB2); experiment: potency of MEX-5 RNA-binding blockers – biochemical, C. elegans, fluorescence polarization, dose response (AID 1960)
T9 sequence (Q9XUB2 whole entry): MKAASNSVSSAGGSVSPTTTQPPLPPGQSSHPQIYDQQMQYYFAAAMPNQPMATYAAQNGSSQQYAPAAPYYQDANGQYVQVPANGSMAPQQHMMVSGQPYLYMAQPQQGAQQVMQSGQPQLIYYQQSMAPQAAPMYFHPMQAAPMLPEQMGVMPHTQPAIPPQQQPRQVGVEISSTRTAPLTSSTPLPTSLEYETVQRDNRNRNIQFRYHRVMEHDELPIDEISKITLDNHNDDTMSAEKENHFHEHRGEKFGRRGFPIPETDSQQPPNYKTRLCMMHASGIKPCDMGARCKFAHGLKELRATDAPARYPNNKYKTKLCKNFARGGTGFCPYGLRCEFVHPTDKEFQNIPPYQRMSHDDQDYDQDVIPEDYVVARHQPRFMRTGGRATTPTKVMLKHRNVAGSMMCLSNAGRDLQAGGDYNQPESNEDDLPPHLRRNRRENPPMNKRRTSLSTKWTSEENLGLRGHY

[13] = cells; format: functional
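For AC50 in this document: cells exposed to compound for roughly 70 hours or longer before luminescence read.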

T2 sequence (P49327 whole entry): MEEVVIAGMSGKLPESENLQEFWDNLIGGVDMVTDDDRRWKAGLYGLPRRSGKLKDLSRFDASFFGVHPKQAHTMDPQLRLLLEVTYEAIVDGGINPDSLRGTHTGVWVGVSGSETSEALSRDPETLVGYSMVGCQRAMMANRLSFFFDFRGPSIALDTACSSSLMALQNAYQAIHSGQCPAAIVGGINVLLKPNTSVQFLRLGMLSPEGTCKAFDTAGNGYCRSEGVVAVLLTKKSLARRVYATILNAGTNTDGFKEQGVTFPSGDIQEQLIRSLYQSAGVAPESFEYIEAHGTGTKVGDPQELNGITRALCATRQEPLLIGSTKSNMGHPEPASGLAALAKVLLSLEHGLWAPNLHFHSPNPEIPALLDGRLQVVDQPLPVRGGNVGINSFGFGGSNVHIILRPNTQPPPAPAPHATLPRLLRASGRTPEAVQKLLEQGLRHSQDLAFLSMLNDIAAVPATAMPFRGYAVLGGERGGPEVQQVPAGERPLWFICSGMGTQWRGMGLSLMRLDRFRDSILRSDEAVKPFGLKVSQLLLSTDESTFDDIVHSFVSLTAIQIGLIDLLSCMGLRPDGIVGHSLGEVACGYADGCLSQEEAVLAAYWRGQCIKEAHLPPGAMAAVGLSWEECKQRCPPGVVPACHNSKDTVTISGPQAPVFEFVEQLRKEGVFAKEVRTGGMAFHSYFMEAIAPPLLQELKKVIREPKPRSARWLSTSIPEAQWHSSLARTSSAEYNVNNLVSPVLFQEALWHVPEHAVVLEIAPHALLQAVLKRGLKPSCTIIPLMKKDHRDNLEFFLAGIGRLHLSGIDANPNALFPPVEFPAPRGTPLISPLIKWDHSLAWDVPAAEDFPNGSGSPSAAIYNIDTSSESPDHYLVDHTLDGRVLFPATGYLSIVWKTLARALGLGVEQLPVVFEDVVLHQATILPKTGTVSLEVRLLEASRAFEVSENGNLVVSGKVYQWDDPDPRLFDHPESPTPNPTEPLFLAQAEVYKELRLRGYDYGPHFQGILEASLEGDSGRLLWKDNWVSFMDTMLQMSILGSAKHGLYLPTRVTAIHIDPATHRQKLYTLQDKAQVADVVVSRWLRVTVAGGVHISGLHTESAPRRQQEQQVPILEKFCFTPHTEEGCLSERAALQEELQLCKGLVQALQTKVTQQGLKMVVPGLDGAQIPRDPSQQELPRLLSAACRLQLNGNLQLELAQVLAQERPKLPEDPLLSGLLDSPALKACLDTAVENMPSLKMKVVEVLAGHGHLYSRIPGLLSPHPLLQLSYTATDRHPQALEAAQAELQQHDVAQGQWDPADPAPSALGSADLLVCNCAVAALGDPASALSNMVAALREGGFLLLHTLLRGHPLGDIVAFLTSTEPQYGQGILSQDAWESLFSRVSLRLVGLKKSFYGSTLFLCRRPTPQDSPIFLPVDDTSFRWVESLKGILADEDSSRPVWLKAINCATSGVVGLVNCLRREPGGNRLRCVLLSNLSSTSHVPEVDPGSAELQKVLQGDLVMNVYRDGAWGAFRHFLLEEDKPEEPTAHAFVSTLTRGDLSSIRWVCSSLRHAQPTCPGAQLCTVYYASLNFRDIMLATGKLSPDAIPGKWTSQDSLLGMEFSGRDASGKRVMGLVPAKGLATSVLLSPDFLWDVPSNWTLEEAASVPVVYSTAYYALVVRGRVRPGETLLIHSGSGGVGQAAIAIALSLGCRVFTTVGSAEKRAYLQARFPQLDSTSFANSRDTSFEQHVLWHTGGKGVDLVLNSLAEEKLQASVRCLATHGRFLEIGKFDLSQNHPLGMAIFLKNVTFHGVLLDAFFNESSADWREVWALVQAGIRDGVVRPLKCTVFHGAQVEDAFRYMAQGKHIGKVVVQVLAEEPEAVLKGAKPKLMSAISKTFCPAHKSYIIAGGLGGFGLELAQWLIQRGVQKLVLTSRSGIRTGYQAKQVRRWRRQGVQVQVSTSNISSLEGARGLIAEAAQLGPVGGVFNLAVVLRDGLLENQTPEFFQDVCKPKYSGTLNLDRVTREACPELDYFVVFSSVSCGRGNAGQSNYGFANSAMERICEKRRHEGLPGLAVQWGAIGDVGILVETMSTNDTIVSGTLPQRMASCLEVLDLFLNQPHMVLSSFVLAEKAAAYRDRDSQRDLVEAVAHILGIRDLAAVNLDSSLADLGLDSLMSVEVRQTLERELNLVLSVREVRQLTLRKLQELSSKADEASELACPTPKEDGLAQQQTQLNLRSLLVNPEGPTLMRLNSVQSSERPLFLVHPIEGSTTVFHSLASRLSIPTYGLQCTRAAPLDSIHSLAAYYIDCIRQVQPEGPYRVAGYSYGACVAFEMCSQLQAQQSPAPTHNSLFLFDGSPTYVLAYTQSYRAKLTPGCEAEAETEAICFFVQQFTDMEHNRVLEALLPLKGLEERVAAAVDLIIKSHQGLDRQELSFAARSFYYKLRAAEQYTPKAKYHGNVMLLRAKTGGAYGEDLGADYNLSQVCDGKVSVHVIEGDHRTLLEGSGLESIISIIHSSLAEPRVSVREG

Row | SMILES | EC50 [1] | EC50 [2] | IC50 [3] | IC50 [4] | IC50 [5] | IC50 [6] | IC50 [7] | IC50 [8] | AC50 [9] | EC50 [10] | EC50 [11] | EC50 [12] | IC50 [13]
1 | O=[N+]([O-])c1ccc(S(=O)(=O)N[N-][C+]2CCCCC2)cc1 | 7.03 µM (active) | > 99 µM (inactive) |  |  |  |  |  |  |  |  |  |  | 
2 | COc1ccc2nc(NC(=O)c3ccc([N+](=O)[O-])o3)sc2c1 |  |  | 14.5 µM (active) | 22.9 µM (active) | 8.39 µM (active) | 4.54 µM (active) | 13.8 µM (active) | 28.2 µM (active) | 1.96 µM (active) |  |  |  | 
3 | COc1nc(C)ccc1-c1noc(-c2cccs2)n1 |  |  |  | 9.82 µM (active) |  | 5.07 µM (active) | 32.7 µM (active) | 13 µM (active) |  | > 260 µM (inactive) |  |  | 
4 | O=C(O)c1ccc(-c2nc(O)c3c(-c4ccccc4)csc3n2)cc1 |  |  |  | 61.6 µM (active) |  | 40.4 µM (active) | 56.1 µM (active) | > 100 µM (inactive) |  |  |  |  | 
5 | O=[N+]([O-])c1ccc(Nc2ccccc2O)c2nonc12 | > 99 µM (inactive) | > 99 µM (inactive) |  |  |  |  |  |  |  |  | 24.4 µM (active) | 28.2 µM (active) | 5.81 µM (active)
